In assay [1] the target is T1, IDO1 (Homo sapiens (Human), UniProt P14902). The experiment in a line: IDO1 Human Whole Blood Assay. The assay is classed as cell-based. Particulars: LPS and IFNγ, 18 h, kynurenine by LC/MS/MS. How it is done: Compounds to be tested were serially diluted in ten 3-fold steps in DMSO starting from 10 mM. 3 μL of compound dilutions or DMSO alone were then dispensed from the dilution plate into a polypropylene 96-well assay plate containing 97 μL of RPMI using an Echo 555 acoustic liquid handler (Labcyte). LPS and IFNγ was prepared in RPMI to a 10λ of final conc. (1000 ng/mL), final concentration is 100 ng/mL.
Human whole blood was drawn in sodium heparin coated tubes from healthy internal donors. Two hundred forty μL of blood was transferred to each of the wells of a v-bottom 96 well plate. Thirty μL of compound was transferred from intermediate dilution plate, and incubated for 15 min. […] from stimulants was then transferred to blood and mixed thoroughly. Plate was covered with breathable membrane and incubated at 37° C. for overnight (18 h).
On day 2 isotope labeled standard of kynurenine and tryptophan was made in water at 10× concentration and 30 μL was added to the blood at 3 μM final concentration. The assay plates were centrifuged at 300×G for 10 min with no brake to separate plasma from red blood cells. Sixty μL of plasma samples was removed without disturbing red blood cells.
Plasma was diluted with RPMI in 1:1 ratio and proteins were precipitated out with two volume of Acetonitrile. The plates was centrifuged at 4000×G for 60 min. Twenty μL of supernatant was carefully transferred to a 384 well plate contain 40 μL of 0.1% formic acid in water and analyzed by LC/MS/MS.
LC/MS/MS analyses were performed using Thermo Fisher's LX4-TSQ Quantum Ultra system. This system consists of four Agilent binary high-performance liquid chromatography (HPLC) pumps and a TSQ Quantum Ultra triple quadruple MS/MS instrument. For each sample, 5 μL were injected onto an Atlantis T3 column (2.1 mm×150 mm, 3 μm particle size) from Waters. The mobile phase gradient pumped at 0.8 mL/min was used to elute the analytes from the column at 25° C. The elution started at 0% B increasing linearly to 25% B at 6.5 min, holding at 25% for 1 min, re-equilibrating to 10 min. Mobile phase A consisted of 0.1% formic acid in water. Mobile phase B consisted of 0.1% of formic acid in acetonitrile. Data was acquired in positive mode using a HESI interface. The operational parameters for the TSQ Quantum Ultra instrument were a spray voltage of 4000 V, capillary temperature of 380° C., vaporizer temperature 400° C., shealth gas 60 arbitrary units, Aux gas 20 arbitrary units, tube lens 85 and collision gas 1.2 mTorr. SRM chromatograms of kynurenine (QI: 209.2>Q3:94.0) and internal standard (Q1: 215.3>Q3:98.2) were collected for 90 sec. The peak area was integrated by Xcalibur Quan software. The ratios between the kynurenine generated in the reaction and 2D6-Kynurenine spiked-in internal standard were used to generate percentage inhibition and IC50 values. Compounds were titrated and IC50's were calculated by 4 parameter sigmoidal curve fitting formula.
Target sequence in this assay (P14902 whole entry): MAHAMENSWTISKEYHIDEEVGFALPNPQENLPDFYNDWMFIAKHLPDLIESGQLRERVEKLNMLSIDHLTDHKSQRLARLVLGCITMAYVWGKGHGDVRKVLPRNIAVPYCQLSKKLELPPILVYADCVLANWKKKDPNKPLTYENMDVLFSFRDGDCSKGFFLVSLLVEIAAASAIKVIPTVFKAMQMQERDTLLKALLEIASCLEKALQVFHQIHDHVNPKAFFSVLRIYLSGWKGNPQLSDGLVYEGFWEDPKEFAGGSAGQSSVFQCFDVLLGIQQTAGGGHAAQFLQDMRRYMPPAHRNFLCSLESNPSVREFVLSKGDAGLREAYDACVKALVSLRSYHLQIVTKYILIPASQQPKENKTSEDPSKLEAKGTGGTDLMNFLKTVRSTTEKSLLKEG

Assay [2] concerns the target T1, IDO1. The experiment in a line: IDO1 Enzyme Assay. Type of assay: biochemical. To be noted: HIS-tagged recombinant IDO1, fluorescence readout. The method, boiled down:
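Purified His-tagged human IDO1 (40 nM final, E. coli-expressed) was preincubated 30 min at RT with compound in 50 mM Tris pH 7.0 with methylene blue, ascorbate and catalase. Reaction ran 60 min at RT after adding tryptophan (400 μM stock), was quenched with methyl isonipecotate and heated, then read by fluorescence (ex 400, em 510 nm); IC50 via four-parameter logistic fit.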
Target sequence in this assay (P14902 whole entry, species assumed): as the sequence (P14902 whole entry) above

In assay [3] the target is T1, IDO1. In words: IDO1 Cellular Assay in Hela Cells Stimulated with IFNγ. The assay is classed as cell-based. Particulars: about 48 hours, read-out: IDO1 HELA Cell Assay, IC50. The method in brief: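 HeLa cells (2×10^5 cells/ml) with 300 uM L-tryptophan and 100 ng/mL IFNγ exposed to 10-point 3-fold compound dilutions for about 48 h at 37° C. Kynurenine detected by fluorescence (ex 400, em 510 nm) after overnight methyl isonipecotate. Signal normalised to non-IFNγ and DMSO wells; IC50 by four-parameter logistic fit.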
Target sequence in this assay (P14902 whole entry): as above

The structures appear in SMILES notation.

Turning to `C[S@](=N)(=O)CCNc1nonc1/C(=N/O)N[C@H]1Cc2ccc(F)cc21` [Example 1, N—((S)-4-fluorobicyclo[4.2.0]octa-1(6),2,4-trien-7-yl)-N′-hydroxy-4-((2-((S)—S-methylsulfonimidoyl)ethyl)amino)-1,2,5-oxadiazole-3-carboximidamide], the IC50 on IDO1 [1] was 427 nM; on IDO1 [2] it was 86 nM; at IDO1 [3], 55.8 nM.

Regarding `CS(=O)(CCNc1nonc1/C(=N/O)N[C@H]1Cc2ccc(F)cc21)=NC(N)=O` (stereo partly drawn) [Example 16, 4-((2-(N-carbamoyl-S-methylsulfonimidoyl)ethyl)amino)-N-((S)-4-fluorobicyclo[4.2.0]octa-1,3,5-trien-7-yl)-N′-hydroxy-1,2,5-oxadiazole-3-carboximidamide], the values for the IC50 at IDO1 [1], at IDO1 [2] and on IDO1 [3] were 843 nM, 55.1 nM and 69.2 nM, respectively.

With `CS(=O)(/C=C/Nc1nonc1/C(=N/O)N[C@H]1Cc2ccc(F)cc21)=NC#N` (stereo partly drawn) [Example 15, 4-(((E)-2-(N-cyano-S-methylsulfonimidoyl)vinyl)amino)-N-((S)-4-fluorobicyclo[4.2.0]octa-1(6),2,4-trien-7-yl)-N′-hydroxy-1,2,5-oxadiazole-3-carboximidamide], the IC50 came to 869 nM on IDO1 [1], 165 nM at IDO1 [2] and 20.1 nM on IDO1 [3].

As for `C[S@@](=N)(=O)CCNc1nonc1/C(=N/O)N[C@H]1Cc2ccc(F)cc21` [Example 2, N—((S)-4-fluorobicyclo[4.2.0]octa-1(6),2,4-trien-7-yl)-N′-hydroxy-4-((2-((R)—S-methylsulfonimidoyl)ethyl)amino)-1,2,5-oxadiazole-3-carboximidamide], the IC50 came out at 386 nM against IDO1 [1], 88.1 nM at IDO1 [2] and 60.9 nM on IDO1 [3].

With `N=S1(=O)CC(CNc2nonc2/C(=N/O)N[C@H]2Cc3ccc(F)cc32)C1` (single isomer, unassigned) [Example 5], the IC50 against IDO1 [1] is 412 nM; at IDO1 [2], 102 nM; at IDO1 [3], 168 nM.

As for `CS(=N)(=O)N1CC(O)(CNc2nonc2/C(=N/O)N[C@H]2Cc3ccc(F)cc32)C1` (single isomer, unassigned) [Example 36], the IC50 against IDO1 [1] stood at 1640 nM; on IDO1 [2], 85.7 nM; on IDO1 [3] it was 148 nM.

As for `N=S1(=O)CC(CNc2nonc2/C(=N/O)N[C@H]2Cc3ccc(F)cc32)C1` (single isomer, unassigned) [Example 6], the IC50 came out at 494 nM against IDO1 [1], 51 nM on IDO1 [2] and 92.1 nM on IDO1 [3].

For the compound `N=S1(=O)CC(Nc2nonc2/C(=N/O)N[C@H]2Cc3ccc(F)cc32)C1` (single isomer, unassigned) [Example 4], the values for the IC50 on IDO1 [1], at IDO1 [2] and on IDO1 [3] were 1890 nM, 90.6 nM and 162 nM, respectively.

For `CS(=N)(=O)N1CC(Oc2nonc2/C(=N/O)N[C@H]2Cc3ccc(F)cc32)C1` (single isomer, unassigned) [Example 41], the IC50 is 224 nM at IDO1 [1], 94 nM on IDO1 [2] and 117 nM on IDO1 [3].

As to `N=S1(=O)CC(Nc2nonc2/C(=N/O)N[C@H]2Cc3ccc(F)cc32)C1` (single isomer, unassigned) [Example 3], the IC50 against IDO1 [1] amounted to 1800 nM; at IDO1 [2] it was 120 nM; at IDO1 [3] it was 110 nM.

With `CS(=O)(CCNc1nonc1/C(=N/O)N[C@H]1Cc2ccc(F)cc21)=NC#N` (stereo partly drawn) [Example 17, 4-((2-(N-cyano-S-methylsulfonimidoyl)ethyl)amino)-N-((S)-4-fluorobicyclo[4.2.0]octa-1(6),2,4-trien-7-yl)-N′-hydroxy-1,2,5-oxadiazole-3-carboximidamide], the concentration for half-maximal inhibition (IC50) at IDO1 [1] was 173 nM; at IDO1 [2] it was 64.7 nM; at IDO1 [3] it was 53.7 nM.

Regarding `CS(=N)(=O)N1CCO[C@@H](CNc2nonc2/C(=N\O)N[C@@H]2Cc3ccc(F)cc32)C1` (single isomer, unassigned) [Example 63], the IC50 at IDO1 [1] was 1200 nM; at IDO1 [2] it was 98 nM; at IDO1 [3], 73 nM.

On to `CS(=N)(=O)N1CCC(Nc2nonc2/C(=N/O)N[C@H]2Cc3ccc(F)cc32)CC1` (single isomer, unassigned) [Example 18], for which the IC50 on IDO1 [2] stood at 68.3 nM; on IDO1 [3] it was 69.9 nM.

For the compound `CON=[S@](C)(=O)CCNc1nonc1/C(=N/O)NC1Cc2ccc(F)cc21` (single isomer, unassigned) [Example 90], the values for the IC50 at IDO1 [2] and on IDO1 [3] were 44.9 nM and 53.5 nM, respectively.

As to `CS(=N)(=O)N1CCC(Nc2nonc2/C(=N/O)N[C@H]2Cc3ccc(F)cc32)C1` (single isomer, unassigned) [Example 45], the IC50 came out at 107 nM on IDO1 [2] and 85 nM on IDO1 [3].

As to `N=S(=O)(CCNc1nonc1/C(=N\O)N[C@@H]1Cc2ccc(F)cc21)C1CC1` (single isomer, unassigned) [Example 68], the IC50 turned out to be 59.1 nM at IDO1 [2] and 44.6 nM at IDO1 [3].

On to `CS(=N)(=O)N1CC(O)(CNc2nonc2/C(=N/O)N[C@H]2Cc3ccc(F)cc32)C1` (single isomer, unassigned) [Example 37], for which the results for the IC50 at IDO1 [2] and on IDO1 [3] were 108 nM and 312 nM, respectively.

Take `CS(=N)(=O)C1CC2(CC(Nc3nonc3/C(=N\O)N[C@@H]3Cc4ccc(F)cc43)C2)C1` (single isomer, unassigned) [Example 74]: the IC50 stood at 73.7 nM on IDO1 [2] and 32.2 nM on IDO1 [3].
